Measurements: PubChem BioAssay (NCI)
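Grown in 96-well plates, cells were treated for 48 hours with each compound at five concentrations. Insufficient inhibition: endpoint recorded as highest concentration tested. TGI is the concentration that stops growth completely.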

Key:
Experiment in all cases: NCI tumour cell line growth inhibition, 48 h
786-0 renal = tested on: 786-0 renal
A498 renal = tested on: A498 renal
A549 NSCLC = tested on: A549 NSCLC
ACHN renal = tested on: ACHN renal
BT-549 breast = tested on: BT-549 breast
CAKI-1 renal = tested on: CAKI-1 renal
CCRF-CEM leukemia = tested on: CCRF-CEM leukemia
COLO 205 colon = tested on: COLO 205 colon
DLD-1 colon = tested on: DLD-1 colon
DMS 114 small cell lung = tested on: DMS 114 small cell lung
DMS 273 small cell lung = tested on: DMS 273 small cell lung
DU-145 prostate = tested on: DU-145 prostate
EKVX NSCLC = tested on: EKVX NSCLC
HCC-2998 colon = tested on: HCC-2998 colon
HCT-116 colon = tested on: HCT-116 colon
HCT-15 colon = tested on: HCT-15 colon
HL-60(TB) leukemia = tested on: HL-60(TB) leukemia
HOP-18 NSCLC = tested on: HOP-18 NSCLC
HOP-62 NSCLC = tested on: HOP-62 NSCLC
HOP-92 NSCLC = tested on: HOP-92 NSCLC
HS 578T breast = tested on: HS 578T breast
HT29 colon = tested on: HT29 colon
IGROV1 ovarian = tested on: IGROV1 ovarian
K-562 leukemia = tested on: K-562 leukemia
KM12 colon = tested on: KM12 colon
KM20L2 colon = tested on: KM20L2 colon
LOX IMVI melanoma = tested on: LOX IMVI melanoma
LXFL 529 NSCLC = tested on: LXFL 529 NSCLC
M14 melanoma = tested on: M14 melanoma
M19-MEL melanoma = tested on: M19-MEL melanoma
MALME-3M melanoma = tested on: MALME-3M melanoma
MCF7 breast = tested on: MCF7 breast
MDA-MB-231 breast = tested on: MDA-MB-231 breast
MDA-MB-435 = tested on: MDA-MB-435
MDA-N = tested on: MDA-N
MOLT-4 leukemia = tested on: MOLT-4 leukemia
NCI-H226 lung = tested on: NCI-H226 lung
NCI-H23 lung = tested on: NCI-H23 lung
NCI-H460 lung = tested on: NCI-H460 lung
NCI-H522 lung = tested on: NCI-H522 lung
NCI/ADR-RES ovarian = tested on: NCI/ADR-RES ovarian
OVCAR-3 ovarian = tested on: OVCAR-3 ovarian
OVCAR-4 ovarian = tested on: OVCAR-4 ovarian
OVCAR-5 ovarian = tested on: OVCAR-5 ovarian
OVCAR-8 ovarian = tested on: OVCAR-8 ovarian
PC-3 prostate = tested on: PC-3 prostate
RPMI-8226 leukemia = tested on: RPMI-8226 leukemia
RXF 393 renal = tested on: RXF 393 renal
RXF-631 renal = tested on: RXF-631 renal
SF-268 CNS = tested on: SF-268 CNS
SF-295 CNS = tested on: SF-295 CNS
SF-539 CNS = tested on: SF-539 CNS
SK-MEL-2 melanoma = tested on: SK-MEL-2 melanoma
SK-MEL-28 melanoma = tested on: SK-MEL-28 melanoma
SK-MEL-5 melanoma = tested on: SK-MEL-5 melanoma
SK-OV-3 ovarian = tested on: SK-OV-3 ovarian
SN12C renal = tested on: SN12C renal
SNB-19 CNS = tested on: SNB-19 CNS
SNB-75 CNS = tested on: SNB-75 CNS
SNB-78 CNS = tested on: SNB-78 CNS
SR leukemia = tested on: SR leukemia
SW-620 colon = tested on: SW-620 colon
T-47D breast = tested on: T-47D breast
TK-10 renal = tested on: TK-10 renal
U251 CNS = tested on: U251 CNS
UACC-257 melanoma = tested on: UACC-257 melanoma
UACC-62 melanoma = tested on: UACC-62 melanoma
UO-31 renal = tested on: UO-31 renal
XF 498 CNS = tested on: XF 498 CNS

## O=[N+]([O-])c1ccc2c(Nc3ccccc3-c3ccccc3Nc3c4ccccc4nc4cc([N+](=O)[O-])ccc34)c3ccccc3nc2c1
786-0 renal
  TGI: 13.4 µM
A498 renal
  TGI: 52.3 µM
A549 NSCLC
  TGI: > 56.2 µM
ACHN renal
  TGI: 49 µM
BT-549 breast
  TGI: 7.74 µM
CAKI-1 renal
  TGI: 50.6 µM
CCRF-CEM leukemia
  TGI: 37.6 µM
COLO 205 colon
  TGI: 9.53 µM
DLD-1 colon
  TGI: > 48.4 µM
DMS 114 small cell lung
  TGI: 27.3 µM
DMS 273 small cell lung
  TGI: > 82.9 µM
DU-145 prostate
  TGI: 35.2 µM
EKVX NSCLC
  TGI: 43 µM
HCC-2998 colon
  TGI: 16.6 µM
HCT-116 colon
  TGI: 6.38 µM
HCT-15 colon
  TGI: 17.6 µM
HL-60(TB) leukemia
  TGI: 15.1 µM
HOP-18 NSCLC
  TGI: > 100 µM
HOP-62 NSCLC
  TGI: 41.4 µM
HOP-92 NSCLC
  TGI: 24.4 µM
HS 578T breast
  TGI: 14.9 µM
HT29 colon
  TGI: 26.7 µM
IGROV1 ovarian
  TGI: 36.1 µM
K-562 leukemia
  TGI: 15.5 µM
KM12 colon
  TGI: 36.9 µM
KM20L2 colon
  TGI: > 65 µM
LOX IMVI melanoma
  TGI: 47.4 µM
LXFL 529 NSCLC
  TGI: > 35.1 µM
M14 melanoma
  TGI: 18.4 µM
M19-MEL melanoma
  TGI: 19.8 µM
MALME-3M melanoma
  TGI: 50.2 µM
MCF7 breast
  TGI: 39.3 µM
MDA-MB-231 breast
  TGI: 6.38 µM
MDA-MB-435
  TGI: 3.8 µM
MDA-N
  TGI: 3.29 µM
MOLT-4 leukemia
  TGI: 50.4 µM
NCI-H226 lung
  TGI: 32.4 µM
NCI-H23 lung
  TGI: 34.7 µM
NCI-H460 lung
  TGI: 15.3 µM
NCI-H522 lung
  TGI: 17.4 µM
NCI/ADR-RES ovarian
  TGI: 25.7 µM
OVCAR-3 ovarian
  TGI: 29.1 µM
OVCAR-4 ovarian
  TGI: 57.2 µM
OVCAR-5 ovarian
  TGI: 56.8 µM
OVCAR-8 ovarian
  TGI: 39.9 µM
PC-3 prostate
  TGI: 6.61 µM
RPMI-8226 leukemia
  TGI: > 39.9 µM
RXF 393 renal
  TGI: 17.4 µM
RXF-631 renal
  TGI: > 82.9 µM
SF-268 CNS
  TGI: 49.8 µM
SF-295 CNS
  TGI: 60.5 µM
SF-539 CNS
  TGI: 39.5 µM
SK-MEL-2 melanoma
  TGI: 6.55 µM
SK-MEL-28 melanoma
  TGI: 59.1 µM
SK-MEL-5 melanoma
  TGI: 8.09 µM
SK-OV-3 ovarian
  TGI: > 56.2 µM
SN12C renal
  TGI: 58.1 µM
SNB-19 CNS
  TGI: 43.8 µM
SNB-75 CNS
  TGI: 34.5 µM
SNB-78 CNS
  TGI: > 100 µM
SR leukemia
  TGI: 15.4 µM
SW-620 colon
  TGI: 11.1 µM
T-47D breast
  TGI: 20.3 µM
TK-10 renal
  TGI: 36.9 µM
U251 CNS
  TGI: 22.9 µM
UACC-257 melanoma
  TGI: 49.8 µM
UACC-62 melanoma
  TGI: 11.5 µM
UO-31 renal
  TGI: 28.8 µM
XF 498 CNS
  TGI: 4.98 µM

## COc1cc(/C=C\c2ccncc2)cc(OC)c1OC
786-0 renal
  TGI: > 100 µM
A498 renal
  TGI: > 100 µM
A549 NSCLC
  TGI: > 100 µM
ACHN renal
  TGI: > 100 µM
CAKI-1 renal
  TGI: > 100 µM
CCRF-CEM leukemia
  TGI: > 100 µM
COLO 205 colon
  TGI: > 100 µM
DLD-1 colon
  TGI: > 100 µM
DMS 114 small cell lung
  TGI: > 100 µM
DMS 273 small cell lung
  TGI: > 100 µM
EKVX NSCLC
  TGI: > 100 µM
HCT-116 colon
  TGI: > 100 µM
HCT-15 colon
  TGI: > 100 µM
HL-60(TB) leukemia
  TGI: > 100 µM
HOP-18 NSCLC
  TGI: > 100 µM
HOP-62 NSCLC
  TGI: > 100 µM
HOP-92 NSCLC
  TGI: > 100 µM
HT29 colon
  TGI: > 100 µM
IGROV1 ovarian
  TGI: > 100 µM
K-562 leukemia
  TGI: > 100 µM
KM12 colon
  TGI: > 100 µM
KM20L2 colon
  TGI: > 100 µM
LOX IMVI melanoma
  TGI: > 100 µM
LXFL 529 NSCLC
  TGI: > 100 µM
M14 melanoma
  TGI: > 100 µM
MALME-3M melanoma
  TGI: > 100 µM
MOLT-4 leukemia
  TGI: > 100 µM
NCI-H226 lung
  TGI: > 100 µM
NCI-H460 lung
  TGI: > 100 µM
NCI-H522 lung
  TGI: > 100 µM
OVCAR-3 ovarian
  TGI: > 100 µM
OVCAR-4 ovarian
  TGI: > 100 µM
OVCAR-5 ovarian
  TGI: > 100 µM
OVCAR-8 ovarian
  TGI: > 100 µM
RPMI-8226 leukemia
  TGI: > 100 µM
RXF 393 renal
  TGI: > 100 µM
RXF-631 renal
  TGI: > 100 µM
SF-268 CNS
  TGI: > 100 µM
SF-295 CNS
  TGI: > 100 µM
SF-539 CNS
  TGI: > 100 µM
SK-MEL-28 melanoma
  TGI: > 100 µM
SK-MEL-5 melanoma
  TGI: > 100 µM
SN12C renal
  TGI: > 100 µM
SNB-19 CNS
  TGI: > 100 µM
SNB-75 CNS
  TGI: > 100 µM
SNB-78 CNS
  TGI: > 100 µM
SW-620 colon
  TGI: > 100 µM
TK-10 renal
  TGI: > 100 µM
U251 CNS
  TGI: > 100 µM
UACC-257 melanoma
  TGI: > 100 µM
UACC-62 melanoma
  TGI: > 100 µM
UO-31 renal
  TGI: > 100 µM
XF 498 CNS
  TGI: > 100 µM
